From US12083097B2, “Dual TNFR1 antagonists and TNER2 agonists for use in renal diseases” (SERODUS AS, priority 2020, dated 2024)
“Also recorded” adds a separate entry of the source.

What was measured:
sTNFR1 = assay: Urine sTNFR1-to-creatinine in Px-UNx diabetic nephropathy rat model (ELISA); format: in vivo; details: for urine sTNFR1 corrected for creatinine, pooled data from Table 2: Treated Px-UNx rats (n = 33), doses 1, 3, 10 mg/kg pooled
Description: Three active doses of 1, 3 and 10 mg/kg of compound 1 were administered orally once daily to 90% pancreatectomized and uninephrectomized rats over 49 days. A control group received placebo, and another control group underwent surgery to mimic the 90% pancreatectomy (Px) and uninephrectomy (UNx) without affecting the function of the kidney or the pancreas (Sham model). The Sham group also received placebo. The conclusion from the rat study was that compound 1 reduced the level of sTNFR1 in the urine over the full treatment period (see FIG. 2). […] The daily doses in the rat model may be converted into equivalent doses in humans (Guidance for Industry: Estimating the Maximum Safe Starting Dose in Initial Clinical Trials for Therapeutics in Adult Healthy Volunteers, 2005). Thus, the 1 mg/kg daily dose corresponds to a human daily dose of 0.16 mg/kg or 11.2 mg for a 70-kg patient. Likewise, a 3 mg/kg daily dose corresponds to a human daily dose of 0.48 mg/kg or 33.6 mg for a 70-kg patient. Finally, a 10 mg/kg daily dose corresponds to a human daily dose of 1.6 mg/kg or 112.7 mg for a 70-kg patient.
(§1) In the examples below, the sTNFR1 and sTNFR2 were measured using the commercial ELISA kits mouse/rat TNFRI/TNFRII Quantikine ELISA kits from R&D Systems according to the manufacturers protocol. However, for the purpose of measuring the sTNFR1 and sTNFR2 in humans for determining the relevant population groups according the present invention, the method described in Krolewski A. S. Diabetes Care 2015; 38:954-962 and Krolewski A. S. et al. Kidney Int. 2017 June; 91(6): 1300-1311 should be used.
(§2) The pancreatectomy and uninephrectomy (see below) were conducted during a single surgical procedure (Secher T et al. Diabetes 2018 July; 67(Supplement 1)). Animals were operated in a randomized fashion during several consecutive surgical days. After an overnight full-fast with grids installed in the cages, the rats were pancreatectomized and uninephrectomized under isoflurane anesthesia. Pre-operative analgesia, antibiotics and fluid replacement were administered. Rats were not offered any food from one day before to one day after the surgery, From the second day after surgery they were fed ad libitum.
(§3) In short, the 90% pancreatectomy is performed by removing the complete portion of the tail, body and a part of the pancreatic head by gentle abrasion with dental applicator. The major blood vessels to the stomach, spleen and gut are left intact so no other organs are compromised.
(§4) Briefly, the right kidney is visited and the right ureter, kidney artery and kidney vein identified, and ligated with suture. Hereafter, the right kidney is removed.
(§5) The sham operation is conducted to mimic the Px-UNx surgical procedure as best as possible. In brief, anesthesia and analgesia as well as opening and closuring the abdominal cavity are conducted as described above. After the abdominal cavity is opened, the pancreas and right kidney will be exposed, but left untouched and intact.
Rats were placed individually in metabolic cages for 16 h from the afternoon to the next morning. Randomized subsets of the study groups were placed in the cages over several days (as there were fewer cages than rats). Rats were supplied with chow and water ad libitum. Cage enrichment (igloo, plastic stick to sit on) was included if possible. Total urine volume was recorded, and urine stored at −80° C. Large amounts were aliquoted in several 0.5 ml Eppendorph tubes prior to freezing.
Urine samples were stored at −80° C. until analysis. sTNFR1 in rat urine was measured using commercial ELISA kits (R&D Systems mouse/rat TNFRI/TNFRII Quantikine ELISA kits) according to the manufacturer's instructions. Urine creatinine was measured using the CREP2 kit (Roche Diagnostics, Germany) on the Cobas™ C-501 autoanalyzer as per the manufacturer's instructions. Urinary albumin was measured using the Bethyl Laboratories rat albumin ELISA as per the manufacturer's instructions. […]

sTNFR2 = assay: Urine sTNFR2-to-creatinine in Px-UNx diabetic nephropathy rat model (ELISA); format: in vivo; details: for urine concentration of sTNFR2 corrected for urine creatinine: Group 3, Px-UNx rats, 1 mg/kg
Description: as §1, §2, §3, §4, §5
Rats were placed individually in metabolic cages for 16 h from the afternoon to the next morning. […] Total urine volume was recorded, and urine stored at −80° C. […]
Urine samples were stored at −80° C. until analysis. sTNFR1 in rat urine was measured using commercial ELISA kits (R&D Systems mouse/rat TNFRI/TNFRII Quantikine ELISA kits) according to the manufacturer's instructions. Urine creatinine was measured using the CREP2 kit (Roche Diagnostics, Germany) on the Cobas™ C-501 autoanalyzer as per the manufacturer's instructions. Urinary albumin was measured using the Bethyl Laboratories rat albumin ELISA as per the manufacturer's instructions. The urinary albumin-to-creatinine ratio (UACR) was calculated. […]
Likewise, the urine concentrations of sTNFR2 corrected for urine concentration of creatinine (pg/mg) were measured at baseline and after 4 and 7 weeks in group 3.

[1] = system: patients with diabetic nephropathy; assay: Clinical Phase 2a study, ACR in patients with diabetic nephropathy; format: in vivo, human; details: for Average baseline ACR / Average ACR (4 weeks): doses 0.3 and 0.625 mg/kg daily pooled
Description: A clinical Phase 2a study with compound 1 was conducted in patients with diabetic nephropathy. The patients were divided into two different subgroups having either macroalbuminuria (ACR>300 mg/g) or microalbuminuria (ACR 30-300 mg/g), and each subgroup were treated with 0.3 mg of compound 1/kg daily or 0.625 mg of compound 1/kg daily for 4 weeks.

Structure (SMILES): O=C(O)CC/C=C\C[C@@H]1CO[C@H](c2ccccc2Cl)O[C@@H]1c1ccccc1O [compound 1, (Z)-6-((2S,4S,5R)-2-(2-chlorophenyl)-4-(2-hydroxyphenyl)-1,3-dioxan-cis-5-yl) hex-4-enoic acid]
- urine concentration of sTNFR1 corrected for urine creatinine (sTNFR1; Group 3, Px-UNx rats, 1 mg/kg orally once daily, 0 weeks (baseline)): 243.38 pg/mg
- urine concentration of sTNFR1 corrected for urine creatinine (sTNFR1; Group 3, Px-UNx rats, 1 mg/kg orally once daily, 4 weeks): 373.28 pg/mg
- urine concentration of sTNFR1 corrected for urine creatinine (sTNFR1; Group 3, Px-UNx rats, 1 mg/kg orally once daily, 7 weeks): 345.46 pg/mg
- urine concentration of sTNFR1 corrected for urine creatinine (sTNFR1; Group 4, Px-UNx rats, 3 mg/kg orally once daily, 0 weeks (baseline)): 236.29 pg/mg
- urine concentration of sTNFR1 corrected for urine creatinine (sTNFR1; Group 4, Px-UNx rats, 3 mg/kg orally once daily, 4 weeks): 313.80 pg/mg
- urine concentration of sTNFR1 corrected for urine creatinine (sTNFR1; Group 4, Px-UNx rats, 3 mg/kg orally once daily, 7 weeks): 369.65 pg/mg
- urine concentration of sTNFR1 corrected for urine creatinine (sTNFR1; Group 5, Px-UNx rats, 10 mg/kg orally once daily, 0 weeks (baseline)): 220.27 pg/mg
- urine concentration of sTNFR1 corrected for urine creatinine (sTNFR1; Group 5, Px-UNx rats, 10 mg/kg orally once daily, 4 weeks): 348.50 pg/mg
- urine concentration of sTNFR1 corrected for urine creatinine (sTNFR1; Group 5, Px-UNx rats, 10 mg/kg orally once daily, 7 weeks): 375.03 pg/mg
- corrected urine sTNFR1 level versus placebo group (sTNFR1; Px-UNx rats, 1, 3, 10 mg/kg, 4 and 7 weeks, compared with Px-UNx placebo): capable of decreasing the level of sTNFR1; also recorded: consistently below the values for the placebo group
- difference in sTNFR1 effect between dosage levels (sTNFR1; Px-UNx rats, 1, 3 or 10 mg/kg): no statistically significant difference between dosage levels
- change in urine sTNFR1 from baseline versus placebo (FIG. 2) (sTNFR1; Px-UNx rats, pooled doses, 7-week period): significantly less than for the placebo control group
- urine sTNFR1 corrected for creatinine, pooled data from Table 2 (sTNFR1; 0 weeks (baseline)): 233.3 pg/mg
- urine sTNFR1 corrected for creatinine, pooled data from Table 2 (sTNFR1; 4 weeks): 345.2 pg/mg
- urine sTNFR1 corrected for creatinine, pooled data from Table 2 (sTNFR1; 7 weeks): 363.4 pg/mg
- urine concentration of sTNFR2 corrected for urine creatinine (sTNFR2; 0 weeks (baseline)): 4561 pg/mg
- urine concentration of sTNFR2 corrected for urine creatinine (sTNFR2; 4 weeks): 3302 pg/mg
- urine concentration of sTNFR2 corrected for urine creatinine (sTNFR2; 7 weeks): 3264 pg/mg
- change in urine TNFR2-to-creatinine from baseline versus placebo (FIG. 3) (sTNFR2; Px-UNx rats, 3 mg/kg, p.o., 4 and 7 weeks): decreasing levels of TNFR2 but much less compared to the placebo control group
- difference in ACR effect between the two doses ([1]; 0.3 vs 0.625 mg/kg daily, each subgroup, 4 weeks): No statistic significant difference between the two doses
- ACR reduction in macroalbuminuria versus microalbuminuria sub-group ([1]; 4 weeks, doses pooled): statistic significant higher reduction in ACR
- Average baseline ACR ([1]; Macroalbuminuria (ACR>300 mg/g) patients, n = 11, baseline): 691 mg/g
- ACR reduction (%) ([1]; Macroalbuminuria patients, n = 11, 4 weeks vs baseline, doses pooled): 26.2%
- Average ACR (4 weeks) ([1]; Macroalbuminuria patients, n = 11, after 4 weeks): 510 mg/g
- Average baseline ACR ([1]; Microalbuminuria (ACR 30-300 mg/g) patients, n = 38, baseline): 91.8 mg/g
- ACR reduction (%) ([1]; Microalbuminuria patients, n = 38, 4 weeks vs baseline, doses pooled): 20.9%
- Average ACR (4 weeks) ([1]; Microalbuminuria patients, n = 38, after 4 weeks): 72.6 mg/g
- reduction in ACR from baseline ([1]; both subgroups (micro- and macroalbuminuria), 4 weeks): statistically significant reduction in ACR
